Results reported in PMC9137614, “TXH11106: A Third-Generation MreB Inhibitor with Enhanced Activity against a Broad Range of Gram-Negative Bacterial Pathogens” (Antibiotics, 2022).
Where two headings read alike, the source gives them in different places.

Molecular target: T1, MreB (EcMreB) (Escherichia coli, UniProt P0A9X4)
T1 construct: N-terminal 8× His-tagged E. coli MreB (mreB from ATCC 25922), wild-type
Assay: malachite green ATPase assay with purified EcMreB; Eadie–Hofstee kinetics
Assay type: biochemical

T1 sequence (P0A9X4 whole entry): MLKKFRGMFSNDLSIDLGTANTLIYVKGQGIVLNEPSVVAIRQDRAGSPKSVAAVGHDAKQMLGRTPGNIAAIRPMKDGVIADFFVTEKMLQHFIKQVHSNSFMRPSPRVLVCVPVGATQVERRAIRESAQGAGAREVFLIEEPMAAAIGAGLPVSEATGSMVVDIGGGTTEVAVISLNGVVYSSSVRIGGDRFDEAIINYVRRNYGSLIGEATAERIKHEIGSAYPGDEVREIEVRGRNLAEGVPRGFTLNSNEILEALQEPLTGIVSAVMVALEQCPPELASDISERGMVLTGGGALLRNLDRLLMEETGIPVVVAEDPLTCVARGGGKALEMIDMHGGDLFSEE

N=C(N)SCc1ccc(Cl)c(Cl)c1 [A22]
IC50: 447 ± 87 µM

NC1CCCc2c1[nH]c1ccc(Br)cc21 (stereo not drawn) [CBR-4830]
IC50 (read-out: IC50): 49 ± 8 µM

NC1CCCc2c1[nH]c1ccc(Cl)c(Cl)c21 (stereo not drawn) [compound 4, 5,6-dichloro-2,3,4,9-tetrahydro-1H-carbazol-1-amine]
IC50 (read-out: IC50): 14 ± 2 µM
